Data published in patent US20110136728A1, “METHODS OF INCREASING BONE FORMATION USING LEPTIN-RELATED PEPTIDES” (priority 2009, published 2011).
Entries after “also recorded” stand apart in the source; their conditions may differ. Non-standard residues stand in square brackets, D forms with d. Residues, ends and D or L forms follow the SMILES beside them.

Key:
[1] = test system: calorie restricted male C57BL/6J ob/ob mice; assay: Oral delivery (gavage) in calorie restricted (40%) ob/ob mice: body weight, serum glucose, serum osteocalcin; format: in vivo, mouse
Description: Six week-old male C57BL/6J wild type and ob/ob mice were obtained from Jackson Laboratories (Bar Harbor, Me., USA). The animals were housed individually polycarbonate cages fitted with stainless steel wire lids and air filters, and supported on ventilated racks (Thoren Caging Systems, Hazelton, Pa., USA) in the Albany Medical College Animal Resources Facility. The mice were maintained at a constant temperature (24° C.) with lights on from 07:00 to 19:00, and allowed food and water ad libitum for 6 days following arrival. During the test period, mice were fed ad libitum or calorie restricted to 60% of normal. Water intake was allowed ad libitum.
On day 1 of the study, and on each day thereafter, a water bottle containing 200 ml of water was added to each cage between 09:00 and 10:00 h. Mice fed ad libitum were given 200 g of pelleted rodent diet (Prolab Rat, Mouse, Hamster 3000, St. Louis, Mo.; 22% crude protein, 5% crude fat, 5% fiber, 6% ash, 2.5% additional minerals) between 09:00 and 10:00 h each day. The mice were weighed once daily between 09:00 and 10:00 h on an Acculab V-333 electronic balance (Cole-Parmer, Vernon Hills, Ill., USA). Calorie-restricted wild type and ob/ob mice received 60% of normal daily intake. Twenty four hours later, food and water remaining in the cages was measured to the nearest 0.1 g and 0.1 ml, respectively. To assure fasting glucose levels on days in which blood glucose was measured, food was removed from the cages between 09:00 and 10:00 h, and replaced immediately before the beginning of the dark cycle.
Mouse [D-Leu-4]OB3 was prepared commercially as a C-terminal amide by Bachem (Torrance, Calif., USA). The peptide was dissolved in 0.3% Intravail A3® (Aegis Therapeutics, San Diego, Calif. USA) reconstituted in water, and administered by gavage once daily for 10 days at a concentration of 1 mg/200 μl immediately before the start of the dark cycle. Is has previously been shown that this is the optimum concentration of mouse [D-Leu-4]-OB3 and its related bioactive peptide amides, for regulating energy expenditure, glucose levels, and insulin sensitivity in two genetically obese mouse models (see Rozhayskaya-Arena M. et al., Endocrinology 141:2501-2517 (2000); Grasso P. et al. Regulatory Pep. 101:123-129 (2001); Grasso P. et al., Diabetes 48:2204-2209 (1999), Grasso P. et al., Endocrinology 138:1413-1418 (1997); Grasso P. et al., Regulatory Peptides 85:93-100 (1999); and Grasso P. et al., Diabetes 48:2204-2209 (1999)). Vehicle injected control mice received 200 ul of Intravail A3® only.
Initial blood samples were drawn by snipping the end of the tail of each mouse at the beginning of the study (day 0); subsequent samples were obtained by gently removing the scab. Blood was taken 1 h before the onset of the dark period at the beginning of the study, and after 2, 4, 6, 8, and 10 days of treatment. The blood was applied to a test strip, and glucose levels were measured with a Glucometer Elite glucose meter (Bayer, Elkhart, Ind., USA).
At the end of the study, the mice were anesthetized with isoflurane (5%) and exsanguinated by cardiac puncture. Euthanasia was confirmed by cervical dislocation. The blood was collected in sterile nonheparinized plastic centrifuge tubes and allowed to stand at room temperature for 1 h. The clotted blood was rimmed from the walls of the tubes with sterile wooden applicator sticks. Individual serum samples were prepared by centrifugation for 30 min at 2600×g in an Eppendorf 5702R, A-4-38 rotor (Eppendorf North America, Westbury, N.Y., USA). The serum samples in each experimental group (n=6) were pooled and stored frozen until assayed for osteocalcin content.
Serum osteocalcin in the pooled samples was assayed in triplicate with a mouse osteocalcin ELISA kit obtained from Biomedical Technologies, Inc. (Stoughton, Mass., USA) according to the instructions supplied by the manufacturer. […]

[2] = Observation of toxic side effects in treated animals; format: in vivo; conditions: treated mice or rats
[3] = 1 mg/day, 10 days, gavage in Intravail

## CC(C)C[C@@H](NC(=O)[C@H](CO)NC(=O)[C@H](CS)NC(=O)[C@@H](N)CO)C(=O)N1CCC[C@H]1C(=O)N[C@@H](CCC(N)=O)C(=O)N[C@H](C(N)=O)[C@@H](C)O [mouse [D-Leu-4]-OB3] (H-SCS[dL]PQT-NH2; N-terminus assumed)
[1]; [3]
  Body weight (% of initial): 90.0 ± 0.8 % of initial
  Final body weight: 30.8 ± 0.6 g
  Serum osteocalcin: 290.1 ± 3.2 ng/mL
[1]; 10 days gavage
  serum glucose compared to calorie restriction alone: normalized levels; also recorded: significantly (P<0.001) reduced serum glucose levels to levels Seen in wild type mice allowed food ad libitum
  serum osteocalcin, effect on decrease caused by calorie restriction: significantly elevated serum osteocalcin levels; also recorded: prevented this decrease
  weight loss compared to calorie restriction with Intravail alone (words): did not enhance this weight loss; also recorded: essentially the same
[1]; after 10 days of treatment
  elevation of serum osteocalcin: 93.4%
[1]; after 10 days, 1 mg/day gavage in Intravail
  Final serum glucose: 176.5 ± 32.8 mg/dL
[1]; day 0
  Initial serum glucose: 480.2 ± 36.7 mg/dL
[1]; day 0, 1 mg/day, 10 days, gavage in Intravail
  Initial body weight: 34.2 ± 0.4 g
[2]
  toxic side effects (words): lack of toxicity
[2]; listed as [D-Leu-4]-OB3
  toxic side effects (words): no obvious toxic side effects have ever been observed
